Laboratory results taken from US20100144855A1, “APPLICATION OF SEDOISOPROSAN FOR PREPARATION OF MEDICINE FOR TREATMENT OF HUMAN HBeAg POSITIVE CHRONIC HEPATITIS B” (priority 2008, published 2010).

Test: clinical trial, safety in HBeAg positive chronic hepatitis B patients
Type: in vivo, human
Conditions: for cases with adverse events: 16 cases
Source text: The clinical trial protocol was designed according to the randomized, double-blind and controlled principle. The clinical efficacy and the safety of sedoisoprosan for therapy on human HBeAg positive chronic hepatitis B is defined according to the changes of vivo HBV-DNA level, ALT level, vital signs, blood routine indexes, blood biochemical indexes and thyroid function indexes before and after administration and the incidence of adverse events.
Patients enrolled in the clinical trials were randomly divided into four groups, i.e. negative control group (800 mg mannite), low dose group (200 mg sedoisoprosan with 600 mg mannite), median dose group (400 mg sedoisoprosan with 400 mg mannite) and high dose group (800 mg sedoisoprosan) respectively. Each patient was assigned with a CRF No. which was randomly generated by computer.
Baseline assessment was performed on the day of the first administration, which included medical examination, hematological examination, blood biochemical examination, thyroid function examination, ALT examination and quantitative detection of HBV-DNA. The medical examination included the examination of stature, avoirdupois, blood pressure and pulse rate. The hematological examination included the leucocyte, neutrophil, erythrocyte, platelet and haemoglobin counts, and the prothrombin time. The blood biochemical examination included the examination of serum potassium, sodium, GOT, total bilirubin, AKP, total protein, albumin, total cholesterol, triglyceride, urea nitrogen, creatinine and glucose.
The patients were followed up at the 1st, 2nd, 4th, 8th and 12th week of the treatment. The blood biochemical examination and the quantitative detection of HBV-DNA was performed at the 2nd, 4th, 8th and 12th week of the treatment, and the adverse events were recorded at the same time. The thyroid function examination was performed at the 12th week of the treatment.
The safety indexes included vital signs, clinical laboratory parameters, adverse events, important adverse events, serious adverse events and the early termination cases. The safety analysis should be performed on patients who have received at least once administration and were evaluated after the administration.
The detection of vital signs and laboratory parameters and the recording for adverse events was performed at baseline and at the 1st, 2nd, 4th, 8th and 12th week of the treatment. The vital signs and laboratory parameters were evaluated by the changes thereof before and after the treatment. The incidence of adverse events was figured by the proportion of patients having adverse events during the treatment, and the evaluation of adverse events included the kinds, grades and the relationship to the drugs. The adverse events were recorded by descriptive statistics, and comparison of the incidence thereof between the four groups was performed by Fisher probabilistic test.

[1] = high dose group, 800 mg, the 1st week
[2] = high dose group, 800 mg, the 2nd week
[3] = high dose group, 800 mg, the 4th week
[4] = high dose group, 800 mg, the 8th week
[5] = high dose group, 800 mg, the 12th week
[6] = low dose group, 200 mg, the 1st week
[7] = low dose group, 200 mg, the 2nd week
[8] = low dose group, 200 mg, the 4th week
[9] = low dose group, 200 mg, the 8th week
[10] = low dose group, 200 mg, the 12th week
[11] = median dose group, 400 mg, the 1st week
[12] = median dose group, 400 mg, the 2nd week
[13] = median dose group, 400 mg, the 4th week
[14] = median dose group, 400 mg, the 8th week
[15] = median dose group, 400 mg, the 12th week
[16] = patient CRF 3, high dose group (800 mg)
[17] = patient CRF 7, low dose group (200 mg)
[18] = patient CRF 10, low dose group (200 mg)
[19] = patient CRF 14, low dose group (200 mg)
[20] = patient CRF 15, median dose group (400 mg)
[21] = patient CRF 17, low dose group (200 mg)
[22] = patient CRF 19, high dose group (800 mg)
[23] = patient CRF 20, median dose group (400 mg)
[24] = patient CRF20, median dose group, after 8 weeks' treatment
[25] = patient CRF 32, median dose group (400 mg)
[26] = patient CRF 60, median dose group (400 mg)

## CC1(C)OC2C3COC(CO)(O3)C(O)C2O1 (centres unmarked) [sedoisoprosan, isopropylidene sedoheptulosan]
800 mg
  safety of the highest dose (vital signs, blood routine and blood biochemical indexes): safe
12 weeks' treatment
  changes in total bilirubin levels before and after the treatment: significant changes in total bilirubin levels before and after the treatment, but such changes were still within the normal range
  changes in vital signs, blood routine indexes and blood biochemical indexes, excluding the total bilirubin levels, before and after the treatment: No significant changes
CRF16, CRF19 and CRF20
  important adverse events related to the study drug and needing treatment: 3 cases
All groups
  central nervous system abnormalities among adverse events: No central nervous system abnormalities were found
Clinical trials, 200-800 mg
  incidence of adverse events: low
High dose group
  patients who quitted the clinical trials for adverse events: No patients
High dose group (800 mg)
  cases with adverse events: two
[1]
  Avoirdupois: 61.34 ± 9.96 kg
  Diastolic Pressure: 75.31 ± 7.26 mmHg
  Pulse rate: 76.00 ± 5.81 times/min
  Respiratory frequency: 18.00 ± 1.86 times/min
  Systolic Pressure: 115.56 ± 13.17 mmHg
[2]
  Avoirdupois: 61.41 ± 9.89 kg
  Diastolic Pressure: 75.31 ± 6.14 mmHg
  Pulse rate: 75.81 ± 5.27 times/min
  Respiratory frequency: 18.38 ± 1.78 times/min
  Systolic Pressure: 112.81 ± 12.55 mmHg
[3]
  Avoirdupois: 61.53 ± 9.81 kg
  Diastolic Pressure: 75.44 ± 6.03 mmHg
  Pulse rate: 76.38 ± 5.95 times/min
  Respiratory frequency: 17.94 ± 1.84 times/min
  Systolic Pressure: 112.69 ± 11.69 mmHg
[4]
  Avoirdupois: 62.06 ± 9.20 kg
  Diastolic Pressure: 77.56 ± 5.05 mmHg
  Pulse rate: 75.75 ± 5.27 times/min
  Respiratory frequency: 18.75 ± 1.24 times/min
  Systolic Pressure: 115.19 ± 10.91 mmHg
[5]
  Avoirdupois: 62.67 ± 9.45 kg
  Diastolic Pressure: 76.73 ± 5.16 mmHg
  Pulse rate: 75.73 ± 4.85 times/min
  Respiratory frequency: 19.13 ± 1.13 times/min
  Systolic Pressure: 115.20 ± 11.55 mmHg
Low dose group (200 mg)
  cases with adverse events: four
[6]
  Avoirdupois: 61.72 ± 10.47 kg
  Diastolic Pressure: 72.38 ± 5.14 mmHg
  Pulse rate: 76.06 ± 5.95 times/min
  Respiratory frequency: 18.63 ± 1.31 times/min
  Systolic Pressure: 116.63 ± 8.79 mmHg
[7]
  Avoirdupois: 61.59 ± 10.80 kg
  Diastolic Pressure: 73.38 ± 6.01 mmHg
  Pulse rate: 74.13 ± 4.70 times/min
  Respiratory frequency: 18.75 ± 1.57 times/min
  Systolic Pressure: 116.00 ± 10.67 mmHg
[8]
  Avoirdupois: 61.57 ± 10.72 kg
  Diastolic Pressure: 74.87 ± 6.55 mmHg
  Pulse rate: 75.13 ± 4.50 times/min
  Respiratory frequency: 18.60 ± 1.30 times/min
  Systolic Pressure: 113.93 ± 9.95 mmHg
[9]
  Avoirdupois: 62.86 ± 11.14 kg
  Diastolic Pressure: 73.29 ± 5.82 mmHg
  Pulse rate: 73.57 ± 5.65 times/min
  Respiratory frequency: 18.64 ± 1.45 times/min
  Systolic Pressure: 115.71 ± 9.75 mmHg
[10]
  Avoirdupois: 63.58 ± 12.09 kg
  Diastolic Pressure: 74.54 ± 4.94 mmHg
  Pulse rate: 71.54 ± 4.16 times/min
  Respiratory frequency: 19.15 ± 1.28 times/min
  Systolic Pressure: 115.85 ± 10.79 mmHg
Median dose group (400 mg)
  cases with adverse events: four
[11]
  Avoirdupois: 62.67 ± 12.11 kg
  Diastolic Pressure: 71.53 ± 7.53 mmHg
  Pulse rate: 77.60 ± 3.83 times/min
  Respiratory frequency: 19.13 ± 3.76 times/min
  Systolic Pressure: 114.33 ± 11.00 mmHg
[12]
  Avoirdupois: 62.30 ± 12.09 kg
  Diastolic Pressure: 71.73 ± 6.24 mmHg
  Pulse rate: 75.47 ± 5.36 times/min
  Respiratory frequency: 18.53 ± 3.54 times/min
  Systolic Pressure: 114.67 ± 9.85 mmHg
[13]
  Avoirdupois: 61.73 ± 9.86 kg
  Diastolic Pressure: 73.13 ± 5.69 mmHg
  Pulse rate: 76.40 ± 3.81 times/min
  Respiratory frequency: 18.40 ± 4.03 times/min
  Systolic Pressure: 115.80 ± 10.25 mmHg
[14]
  Avoirdupois: 62.70 ± 11.76 kg
  Diastolic Pressure: 73.73 ± 4.51 mmHg
  Pulse rate: 75.40 ± 3.25 times/min
  Respiratory frequency: 19.27 ± 2.34 times/min
  Systolic Pressure: 110.87 ± 7.70 mmHg
[15]
  Avoirdupois: 59.88 ± 8.18 kg
  Diastolic Pressure: 74.77 ± 5.15 mmHg
  Pulse rate: 78.00 ± 4.53 times/min
  Respiratory frequency: 19.31 ± 2.66 times/min
  Systolic Pressure: 115.69 ± 9.67 mmHg
One patient, low dose group, after 6 weeks' treatment
  reason for early termination: progressive increasing ALT level
[16]
  Adverse event Liver Dysfunction: Outcome: Remission Without Sequela
  Adverse event Liver Dysfunction: Relation to the study drug: Unrelated
  Adverse event Liver Dysfunction: Severity: Light
[17]
  Adverse event Urinary Tract Infection: Outcome: Remission Without Sequela
  Adverse event Urinary Tract Infection: Relation to the study drug: Unrelated
  Adverse event Urinary Tract Infection: Severity: Light
[18]
  Adverse event Progressive Increase in ALT Level: Outcome: Reexamination of Liver Function After A Week
  Adverse event Progressive Increase in ALT Level: Relation to the study drug: Maybe Unrelated
  Adverse event Progressive Increase in ALT Level: Severity: Middle
[19]
  Adverse event Alopecia: Outcome: No Change
  Adverse event Alopecia: Relation to the study drug: Maybe Related
  Adverse event Alopecia: Severity: Light
  Adverse event Gingival Bleeding: Outcome: Remission Without Sequela
  Adverse event Gingival Bleeding: Relation to the study drug: Maybe Unrelated
  Adverse event Gingival Bleeding: Severity: Light
  Adverse event Liver Dysfunction: Outcome: Remission Without Sequela
  Adverse event Liver Dysfunction: Relation to the study drug: Maybe Unrelated
  Adverse event Liver Dysfunction: Severity: Light
  Adverse event Pharyngoxerosis: Outcome: Remission Without Sequela
  Adverse event Pharyngoxerosis: Relation to the study drug: Unrelated
  Adverse event Pharyngoxerosis: Severity: Light
[20]
  Adverse event Alopecia: Outcome: No Change
  Adverse event Alopecia: Relation to the study drug: Maybe Related
  Adverse event Alopecia: Severity: Light
  Adverse event Emesis: Outcome: Remission Without Sequela
  Adverse event Emesis: Relation to the study drug: Maybe Unrelated
  Adverse event Emesis: Severity: Light
  Adverse event Gingival Bleeding: Outcome: Remission Without Sequela
  Adverse event Gingival Bleeding: Relation to the study drug: Maybe Unrelated
  Adverse event Gingival Bleeding: Severity: Light
  Adverse event Increase in ALT Level: Outcome: Remission Without Sequela
  Adverse event Increase in ALT Level: Relation to the study drug: Maybe Unrelated
  Adverse event Increase in ALT Level: Severity: Light
[21]
  Adverse event Alopecia: Outcome: No Change
  Adverse event Alopecia: Relation to the study drug: Maybe Related
  Adverse event Alopecia: Severity: Light
[22]
  Adverse event ALT 74 U/L, TBil 133.1: Outcome: Remission Without Sequela
  Adverse event ALT 74 U/L, TBil 133.1: Relation to the study drug: Maybe Related
  Adverse event ALT 74 U/L, TBil 133.1: Severity: Middle
  Adverse event Aggravated Muscle Ache: Outcome: Remission Without Sequela
  Adverse event Aggravated Muscle Ache: Relation to the study drug: Maybe Related
  Adverse event Aggravated Muscle Ache: Severity: Middle
  Adverse event Costalgia And Notalgia: Outcome: Remission Without Sequela
  Adverse event Costalgia And Notalgia: Relation to the study drug: Maybe Related
  Adverse event Costalgia And Notalgia: Severity: Middle
  Adverse event Generalized Muscle Ache: Outcome: Remission Without Sequela
  Adverse event Generalized Muscle Ache: Relation to the study drug: Maybe Related
  Adverse event Generalized Muscle Ache: Severity: Light
[23]
  Adverse event Acid Regurgitation: Outcome: Remission Without Sequela
  Adverse event Acid Regurgitation: Relation to the study drug: Maybe Related
  Adverse event Acid Regurgitation: Severity: Light
  Adverse event Aggravated Digestive Symptom: Outcome: Remission Without Sequela
  Adverse event Aggravated Digestive Symptom: Relation to the study drug: Related
  Adverse event Aggravated Digestive Symptom: Severity: Middle
  Adverse event Dark Urine: Outcome: Remission Without Sequela
  Adverse event Dark Urine: Relation to the study drug: Related
  Adverse event Dark Urine: Severity: Middle
  Adverse event Epigastric Discomfort: Outcome: Remission Without Sequela
  Adverse event Epigastric Discomfort: Relation to the study drug: Related
  Adverse event Epigastric Discomfort: Severity: Middle
  Adverse event Hypodynamia: Outcome: Remission Without Sequela
  Adverse event Hypodynamia: Relation to the study drug: Related
  Adverse event Hypodynamia: Severity: Middle
  Adverse event Icterus: Outcome: Remission Without Sequela
  Adverse event Icterus: Relation to the study drug: Related
  Adverse event Icterus: Severity: Middle
[24]
  ALT level at early termination: 343 U/L
  AST level at early termination: 517 U/L
  TBil level at early termination: 68.1 µmol/L
[25]
  Adverse event Toothache And Periodontitis: Outcome: Remission Without Sequela
  Adverse event Toothache And Periodontitis: Relation to the study drug: Unrelated
  Adverse event Toothache And Periodontitis: Severity: Middle
[26]
  Adverse event Upper Respiratory Tract Infection: Outcome: Remission Without Sequela
  Adverse event Upper Respiratory Tract Infection: Relation to the study drug: Unrelated
  Adverse event Upper Respiratory Tract Infection: Severity: Middle
